Assay results as given in ChEMBL document CHEMBL1201862, “PubChem BioAssay data set” (2004).
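Protocol summary: plate cells (96-well), add compound at 5 concentrations, incubate 48 h, interpolate endpoints linearly. GI50 = concentration required for 50% inhibition of growth.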 Calls of active or inactive are those of the source. No stated cut-off is given here; in the data, active = GI50 up to about 1.1 µM and inactive = higher.

Legend:
Assay in all cases: NCI-60 cell line screen, 48 h
DMS-273 = system: DMS-273
786-0 = system: 786-0
SK-OV-3 = system: SK-OV-3
SF-268 = system: SF-268
IGROV-1 = system: IGROV-1
UACC-62 = system: UACC-62
HOP-62 = system: HOP-62
PC-3 = system: PC-3
SR = system: SR
HCT-15 = system: HCT-15
DU-145 = system: DU-145
CAKI-1 = system: CAKI-1
OVCAR-4 = system: OVCAR-4
SW-620 = system: SW-620
MDA-MB-435 = system: MDA-MB-435
MCF7 = system: MCF7
UACC-257 = system: UACC-257
OVCAR-5 = system: OVCAR-5
OVCAR-3 = system: OVCAR-3
HCC 2998 = system: HCC 2998
NCI-H460 = system: NCI-H460
Hs-578T = system: Hs-578T
T47D = system: T47D
HT-29 = system: HT-29
LOX IMVI = system: LOX IMVI
SF-539 = system: SF-539
NCI-H23 = system: NCI-H23
RXF 393 = system: RXF 393
OVCAR-8 = system: OVCAR-8
NCI-H226 = system: NCI-H226
NCI/ADR-RES = system: NCI/ADR-RES
RPMI-8226 = system: RPMI-8226
SN12C = system: SN12C
ACHN = system: ACHN
Malme-3M = system: Malme-3M
TK-10 = system: TK-10
BT-549 = system: BT-549
HL-60 = system: HL-60
SK-MEL-2 = system: SK-MEL-2
A549 = system: A549
MDA-MB-231 = system: MDA-MB-231
LXFL 529 = system: LXFL 529
M14 = system: M14
CCRF-CEM = system: CCRF-CEM
KM12 = system: KM12
KM-20L2 = system: KM-20L2
SK-MEL-28 = system: SK-MEL-28
COLO 205 = system: COLO 205
DMS-114 = system: DMS-114
A498 = system: A498
HOP-92 = system: HOP-92
DLD-1 = system: DLD-1
U-251 = system: U-251
MDA-N = system: MDA-N
SNB-75 = system: SNB-75
HCT-116 = system: HCT-116
MOLT-4 = system: MOLT-4
SK-MEL-5 = system: SK-MEL-5
SNB-78 = system: SNB-78
RXF 631 = system: RXF 631
SF-295 = system: SF-295
SNB-19 = system: SNB-19
NCI-H522 = system: NCI-H522
UO-31 = system: UO-31
K562 = system: K562
EKVX = system: EKVX

## CCCCCCN(CCCCCC)C(=S)N/N=C(\C)c1ccccn1
DMS-273
  GI50: 1630 nM (inactive)
786-0
  GI50: 971 nM (active)
SK-OV-3
  GI50: 1400 nM (inactive)
SF-268
  GI50: 345 nM (active)
IGROV-1
  GI50: 955 nM (active)
UACC-62
  GI50: 1000 nM (active)
HOP-62
  GI50: 1210 nM (inactive)
PC-3
  GI50: 265 nM (active)
SR
  GI50: 436 nM (active)
HCT-15
  GI50: 581 nM
DU-145
  GI50: 1280 nM (inactive)
CAKI-1
  GI50: 836 nM (active)
OVCAR-4
  GI50: 457 nM (active)
SW-620
  GI50: 718 nM (active)
MDA-MB-435
  GI50: 708 nM (active)
MCF7
  GI50: 1530 nM (inactive)
UACC-257
  GI50: 1600 nM (inactive)
OVCAR-5
  GI50: 1630 nM (inactive)
OVCAR-3
  GI50: 506 nM (active)
HCC 2998
  GI50: 1610 nM (inactive)
NCI-H460
  GI50: 1090 nM (active)
Hs-578T
  GI50: 1090 nM (active)
T47D
  GI50: 269 nM (active)
HT-29
  GI50: 1510 nM (inactive)
LOX IMVI
  GI50: 838 nM (active)
SF-539
  GI50: 1090 nM (active)
NCI-H23
  GI50: 1240 nM (inactive)
RXF 393
  GI50: 973 nM (active)
OVCAR-8
  GI50: 815 nM (active)
NCI-H226
  GI50: 622 nM (active)
NCI/ADR-RES
  GI50: 1370 nM (inactive)
RPMI-8226
  GI50: 117 nM (active)
SN12C
  GI50: 957 nM (active)
ACHN
  GI50: 703 nM (active)
Malme-3M
  GI50: 1340 nM (inactive)
TK-10
  GI50: 993 nM (active)
BT-549
  GI50: 1680 nM (inactive)
HL-60
  GI50: 76.7 nM (active)
SK-MEL-2
  GI50: 1060 nM (active)
A549
  GI50: 1520 nM (inactive)
MDA-MB-231
  GI50: 1150 nM (inactive)
LXFL 529
  GI50: 208 nM (active)
M14
  GI50: 760 nM (active)
CCRF-CEM
  GI50: 161 nM (active)
KM12
  GI50: 1050 nM (active)
KM-20L2
  GI50: 673 nM (active)
SK-MEL-28
  GI50: 1040 nM (active)
COLO 205
  GI50: 321 nM (active)
DMS-114
  GI50: 571 nM (active)
A498
  GI50: 1860 nM (inactive)
HOP-92
  GI50: 906 nM (active)
DLD-1
  GI50: 1260 nM (inactive)
U-251
  GI50: 393 nM (active)
MDA-N
  GI50: 1320 nM (inactive)
SNB-75
  GI50: 577 nM (active)
HCT-116
  GI50: 1090 nM (active)
MOLT-4
  GI50: 179 nM (active)
SK-MEL-5
  GI50: 1030 nM (active)
SNB-78
  GI50: 711 nM (active)
RXF 631
  GI50: 1020 nM (active)
SF-295
  GI50: 1530 nM (inactive)
SNB-19
  GI50: 1310 nM (inactive)
NCI-H522
  GI50: 527 nM (active)
UO-31
  GI50: 344 nM (active)
K562
  GI50: 105 nM (active)
EKVX
  GI50: 531 nM (active)
